# From ChEMBL document CHEMBL1147182, “Clubbed thiazoles by MAOS: a novel approach to cyclin-dependent kinase 5/p25 inhibitors as a potential treatment for Alzheimer's disease” (Bioorg Med Chem, 2007)
# pIC50: −log10 of the molar value.
# What was measured:
# [1] = target: Cyclin-dependent kinase 5/CDK5 activator 1 (Homo sapiens, UniProt Q00535); assay: Inhibition of human cdk5/p25 by SPA; type: protein-complex assay
# [2] = Cytotoxicity against VeroC1008 cells at 6.25 to 50 ug/ml by neutral red uptake assay; type: cell-based; settings: chlorocebus sabaeus, vero
# Chain of Cyclin-dependent kinase 5/CDK5 activator 1 (Q00535 whole entry): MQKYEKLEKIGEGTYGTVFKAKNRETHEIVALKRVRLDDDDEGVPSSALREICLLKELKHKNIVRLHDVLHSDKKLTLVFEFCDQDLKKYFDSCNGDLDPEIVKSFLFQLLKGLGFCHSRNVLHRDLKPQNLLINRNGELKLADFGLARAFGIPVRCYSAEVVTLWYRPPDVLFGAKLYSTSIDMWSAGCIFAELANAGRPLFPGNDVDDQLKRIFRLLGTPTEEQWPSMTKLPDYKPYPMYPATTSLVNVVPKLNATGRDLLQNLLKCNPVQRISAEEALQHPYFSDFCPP
# Chain of Cyclin-dependent kinase 5/CDK5 activator 1 (Q15078 whole entry, further chain): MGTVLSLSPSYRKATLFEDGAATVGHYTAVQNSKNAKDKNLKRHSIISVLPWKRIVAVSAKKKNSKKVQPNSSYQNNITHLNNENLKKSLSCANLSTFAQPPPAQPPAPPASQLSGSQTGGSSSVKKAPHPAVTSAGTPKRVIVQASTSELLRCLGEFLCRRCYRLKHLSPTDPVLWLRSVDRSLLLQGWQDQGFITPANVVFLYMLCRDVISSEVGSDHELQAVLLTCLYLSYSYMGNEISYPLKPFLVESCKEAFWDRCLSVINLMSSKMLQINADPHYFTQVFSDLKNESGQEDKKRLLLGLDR
SMILES,pIC50 [1],Activity [2]
O=C(CSc1nnc(Cc2csc(NC(=O)CCl)n2)n1NC(=O)c1ccc(Cl)cc1)NNC(=O)c1ccccc1,6.19,Non-toxic
N#CCSc1nnc(Cc2csc(NC(=O)CCl)n2)n1NC(=O)c1ccc(Cl)cc1,6.25,Non-toxic
O=C(CSc1nnc(Cc2csc(NC(=O)c3ccccc3)n2)n1NC(=O)c1ccc(Cl)cc1)N/N=C/c1ccccc1,6.61,Non-toxic
Nn1c(S)nnc1Cc1csc(NC(=O)CCl)n1,6.41,Non-toxic
CC(=O)Nc1nc(Cc2nnc(SCC(=O)N/N=C/c3ccccc3)n2NC(=O)c2ccccc2)cs1,6.31,Non-toxic
CC(=O)Nn1c(Cc2csc(NCCC(=O)O)n2)nnc1SCC(=O)N/N=C/c1ccccc1,6.20,Non-toxic
CC(=O)Nn1c(Cc2csc(NCCC(=O)O)n2)nnc1SCc1nnc(S)n1N,5.19,Non-toxic
COC(=O)CSc1nnc(Cc2csc(NC(C)=O)n2)n1NC(=O)c1ccc(Cl)cc1,6.42,Non-toxic
CC(=O)NNC(=O)CSc1nnc(Cc2csc(NC(=O)c3ccccc3)n2)n1NC(=O)c1ccccc1,6.25,Non-toxic
O=C(CCl)Nc1nc(Cc2n[nH]c(=S)n2NC(=O)c2ccccc2)cs1,6.12,Non-toxic
CC(=O)Nc1nc(Cc2nnc(SCC(=O)NNC(=O)CCl)n2NC(C)=O)cs1,6.32,Non-toxic
CC(=O)Nn1c(S)nnc1Cc1csc(NC(=O)c2ccccc2)n1,6.21,Non-toxic
O=C(O)CCNc1nc(Cc2nnc(SCC(=O)NNC(=O)CCl)n2NC(=O)c2ccc(Cl)cc2)cs1,6.74,Non-toxic
CC(=O)Nn1c(Cc2csc(NC(=O)c3ccccc3)n2)nnc1SCc1nnc(S)n1N,5.20,Non-toxic
COC(=O)CSc1nnc(Cc2csc(NC(=O)c3ccccc3)n2)n1NC(=O)c1ccc(Cl)cc1,6.54,Non-toxic
O=C(O)CCNc1nc(Cc2n[nH]c(=S)n2NC(=O)c2ccc(Cl)cc2)cs1,6.34,Non-toxic
CC(=O)Nc1nc(Cc2nnc(SCC#N)n2NC(=O)c2ccccc2)cs1,6.40,Non-toxic
CC(=O)Nc1nc(Cc2nnc(SCC(=O)N/N=C/c3ccccc3)n2NC(C)=O)cs1,6.33,Non-toxic
O=C(O)CCNc1nc(Cc2nnc(SCC(=O)NNC(=O)c3ccccc3)n2NC(=O)c2ccc(Cl)cc2)cs1,6.57,Non-toxic
O=C(CCl)Nc1nc(Cc2nnc(SCSc3nnc(Cc4csc(NC(=O)CCl)n4)n3NC(=O)c3ccc(Cl)cc3)n2NC(=O)c2ccc(Cl)cc2)cs1,6.47,Non-toxic
NNC(=O)CSc1nnc(Cc2csc(NCCC(=O)O)n2)n1NC(=O)c1ccccc1,6.33,Non-toxic
Nn1c(CSc2nnc(Cc3csc(NC(=O)c4ccccc4)n3)n2NC(=O)c2ccccc2)n[nH]c1=S,5.33,Non-toxic
N#CCSc1nnc(Cc2csc(NC(=O)CCl)n2)n1NC(=O)c1ccccc1,6.18,Non-toxic
N#CCSc1nnc(Cc2csc(NC(=O)c3ccccc3)n2)n1NC(=O)c1ccccc1,6.30,Non-toxic

SMILES,pIC50 [1],Activity [2]
CC(=O)Nc1nc(Cc2nnc(SCC(=O)NN)n2NC(C)=O)cs1,6.62,Non-toxic
O=C(CCl)NNC(=O)CSc1nnc(Cc2csc(NC(=O)c3ccccc3)n2)n1NC(=O)c1ccccc1,6.27,Non-toxic
O=C(Nc1nc(Cc2n[nH]c(=S)n2NC(=O)c2ccccc2)cs1)c1ccccc1,6.05,Non-toxic
NNC(=O)CSc1nnc(Cc2csc(NC(=O)CCl)n2)n1NC(=O)c1ccccc1,6.61,Non-toxic
O=C(CCl)NNC(=O)CSc1nnc(Cc2csc(NC(=O)CCl)n2)n1NC(=O)c1ccccc1,6.28,Non-toxic
CC(=O)Nn1c(Cc2csc(NC(=O)CCl)n2)nnc1SCSc1nnc(Cc2csc(NC(=O)CCl)n2)n1NC(C)=O,6.07,Non-toxic
CC(=O)Nn1c(Cc2csc(NCCC(=O)O)n2)nnc1SCC(=O)NNC(=O)c1ccccc1,6.32,Non-toxic
CC(=O)Nc1nc(Cc2nnc(SCSc3nnc(Cc4csc(NC(C)=O)n4)n3NC(=O)c3ccc(Cl)cc3)n2NC(=O)c2ccc(Cl)cc2)cs1,6.42,Non-toxic
CC(=O)Nc1nc(Cc2nnc(SCC(=O)NNC(=O)c3ccccc3)n2NC(C)=O)cs1,6.36,Non-toxic
O=C(CCl)Nc1nc(Cc2nnc(SCSc3nnc(Cc4csc(NC(=O)CCl)n4)n3NC(=O)c3ccccc3)n2NC(=O)c2ccccc2)cs1,6.17,Non-toxic
N#CCSc1nnc(Cc2csc(NCCC(=O)O)n2)n1NC(=O)c1ccc(Cl)cc1,6.37,Non-toxic
CC(=O)Nn1c(Cc2csc(NC(=O)CCl)n2)nnc1SCC#N,6.38,Non-toxic
O=C(CCl)NNC(=O)CSc1nnc(Cc2csc(NC(=O)c3ccccc3)n2)n1NC(=O)c1ccc(Cl)cc1,6.47,Non-toxic
Nn1c(CSc2nnc(Cc3csc(NCCC(=O)O)n3)n2NC(=O)c2ccc(Cl)cc2)n[nH]c1=S,5.18,Non-toxic
CC(=O)Nn1c(Cc2csc(NCCC(=O)O)n2)nnc1SCC(=O)NNC(=O)CCl,6.58,Non-toxic
CC(=O)NNC(=O)CSc1nnc(Cc2csc(NC(=O)CCl)n2)n1NC(=O)c1ccc(Cl)cc1,6.33,Non-toxic
CC(=O)Nn1c(Cc2csc(NCCC(=O)O)n2)n[nH]c1=S,6.36,Non-toxic
CC(=O)Nn1c(Cc2csc(NC(=O)CCl)n2)nnc1SCC(=O)N/N=C/c1ccccc1,6.27,Non-toxic
CC(=O)Nn1c(Cc2csc(NC(=O)CCl)n2)nnc1SCC(=O)NN,6.70,Non-toxic
O=C(CSc1nnc(Cc2csc(NC(=O)CCl)n2)n1NC(=O)c1ccccc1)NNC(=O)c1ccccc1,6.33,Non-toxic
CC(=O)Nc1nc(Cc2nnc(S)n2NC(=O)c2ccc(Cl)cc2)cs1,6.34,Non-toxic
CC(=O)Nn1c(Cc2csc(NC(=O)CCl)n2)nnc1SCC(=O)NNC(=O)c1ccccc1,6.44,Non-toxic
CC(=O)Nc1nc(Cc2n[nH]c(=S)n2NC(=O)c2ccccc2)cs1,6.24,Non-toxic
COC(=O)CSc1nnc(Cc2csc(NC(=O)CCl)n2)n1NC(C)=O,6.16,Non-toxic

SMILES,pIC50 [1],Activity [2]
COC(=O)CSc1nnc(Cc2csc(NCCC(=O)O)n2)n1NC(C)=O,6.13,Non-toxic
COC(=O)CSc1nnc(Cc2csc(NC(=O)CCl)n2)n1NC(=O)c1ccc(Cl)cc1,6.36,Non-toxic
CC(=O)Nn1c(S)nnc1Cc1csc(NC(=O)CCl)n1,6.16,Non-toxic
COC(=O)CSc1nnc(Cc2csc(NCCC(=O)O)n2)n1NC(=O)c1ccc(Cl)cc1,6.25,Non-toxic
CC(=O)Nc1nc(Cc2nnc(SCc3n[nH]c(=S)n3N)n2NC(=O)c2ccccc2)cs1,5.18,Non-toxic
O=C(CSc1nnc(Cc2csc(NC(=O)c3ccccc3)n2)n1NC(=O)c1ccc(Cl)cc1)NNC(=O)c1ccccc1,6.32,Non-toxic
COC(=O)CSc1nnc(Cc2csc(NC(=O)c3ccccc3)n2)n1NC(C)=O,6.22,Non-toxic
O=C(O)CCNc1nc(Cc2nnc(S)n2NC(=O)c2ccccc2)cs1,6.17,Non-toxic
CC(=O)NNC(=O)CSc1nnc(Cc2csc(NC(=O)CCl)n2)n1NC(=O)c1ccccc1,6.45,Non-toxic
CC(=O)Nn1c(Cc2csc(NCCC(=O)O)n2)nnc1SCSc1nnc(Cc2csc(NCCC(=O)O)n2)n1NC(C)=O,6.13,Non-toxic
O=C(CSc1nnc(Cc2csc(NC(=O)c3ccccc3)n2)n1NC(=O)c1ccccc1)NNC(=O)c1ccccc1,6.33,Non-toxic
CC(=O)NNC(=O)CSc1nnc(Cc2csc(NC(C)=O)n2)n1NC(=O)c1ccc(Cl)cc1,6.19,Non-toxic
CC(=O)NNC(=O)CSc1nnc(Cc2csc(NC(C)=O)n2)n1NC(=O)c1ccccc1,6.27,Non-toxic
CC(=O)NNC(=O)CSc1nnc(Cc2csc(NCCC(=O)O)n2)n1NC(=O)c1ccccc1,6.33,Non-toxic
Nn1c(CSc2nnc(Cc3csc(NCCC(=O)O)n3)n2NC(=O)c2ccccc2)n[nH]c1=S,5.32,Non-toxic
CC(=O)NNC(=O)CSc1nnc(Cc2csc(NC(=O)CCl)n2)n1NC(C)=O,6.45,Non-toxic
CC(=O)Nc1nc(Cc2nnc(SCC(=O)NN)n2NC(=O)c2ccccc2)cs1,6.71,Non-toxic
CC(=O)NNC(=O)CSc1nnc(Cc2csc(NC(=O)c3ccccc3)n2)n1NC(C)=O,6.19,Non-toxic
CC(=O)Nc1nc(Cc2n[nH]c(=S)n2NC(C)=O)cs1,6.22,Non-toxic
CC(=O)NNC(=O)CSc1nnc(Cc2csc(NCCC(=O)O)n2)n1NC(C)=O,6.33,Non-toxic
CC(=O)Nc1nc(Cc2nnc(SCc3n[nH]c(=S)n3N)n2NC(=O)c2ccc(Cl)cc2)cs1,5.13,Non-toxic
COC(=O)CSc1nnc(Cc2csc(NCCC(=O)O)n2)n1NC(=O)c1ccccc1,6.19,Non-toxic
N#CCSc1nnc(Cc2csc(NCCC(=O)O)n2)n1NC(=O)c1ccccc1,6.31,Non-toxic
CC(=O)Nc1nc(Cc2nnc(SCC(=O)NNC(=O)CCl)n2NC(=O)c2ccc(Cl)cc2)cs1,6.59,Non-toxic
